What all share (format): in vivo
One assay has as its target T1, sarkosyl-insoluble Tau (Homo sapiens, UniProt P10636, P618L).
T1 construct: expressing the full-length human Tau carrying the P301L mutation (Tau4R0N-P301L); from tissue; host or cells: brain (cortex) of double transgenic rTg4510 mice
In words: Sarkosyl-insoluble Tau quantification in cortex, study of Example 2. Conditions: rTg4510 mice cortex, once daily by gavage, 7 and 20 mg/kg; statistical significance at 20 mg/kg; FIG. 5. The protocol:
(§1) Double transgenic rTg4510 mice are an aggressive Tauopathy model expressing the full-length human Tau carrying the P301L mutation (Tau4R0N-P301L) under the control of the tetracycline-inducible CaMKII promoter (Ramsden et al., 2005). Wild-type animals and single transgenic mice expressing only the tetracycline-controlled transactivator (tTA) were used as genotype controls. Mice were treated and tested. The study comprised 4 treatment groups (n=15 female mice/group) with the following group distribution (see Table 6). Compound of the invention or vehicle control were administered once daily by gavage for 12 weeks starting at the age of 5.5 weeks. The Morris Water Maze (MWM) behavioral test was performed after 12.5 weeks of treatment over 5 consecutive days. During MWM testing daily dosing was continued. Behavioral testing (MWM) and biochemical quantification of sarkosyl-insoluble Tau were performed on all mice (n=15 mice/group). Measurement of cortical atrophy and histology for Iba1 were performed on 10 mice/group.
After behavioral testing, mice were deeply anesthetized by standard injectable anesthesia and transcardially perfused with cold PBS. Brains were then removed and hemi-sagitally hemisected. […] The membranes were finally scanned using LiCor scanner (Odyssey Infrared Imager) and quantified using the LiCor software Image Studio Lite Version 5.2. […]

The subject of another assay is rTg4510 mice. In words: Cortex size (cortical atrophy), study of Example 2. Conditions: once daily by gavage, 7 and 20 mg/kg, statistical significance at the higher dose, FIG. 6A. The protocol:
as §1
After behavioral testing, mice were deeply anesthetized by standard injectable anesthesia and transcardially perfused with cold PBS. Brains were then removed and hemi-sagitally hemisected. […] A systematic random set of sections from seven sagittal levels per animal was used to quantify the cortex size.

Another assay deals with Iba1 positive microglia. The assay can be described thus: Iba1 immunoreactivity (microgliosis), study of Example 2. The conditions noted are these: rTg4510 mice, once daily by gavage, 20 mg/kg; FIG. 6B. Here is the method: as §1
One section per animal from layer 6 was also used to quantify the Iba1 immunoreactivity. […] Sections were imaged using a digital slide scanner (Pannoramic 250 BF Flash+FL, 3D Histech Ltd.) and quantified using the image visualization software CaseViewer and the image analysis software module HistoQuant (3D Histech Ltd.).

T1 sequence (P10636 1-383 isoform P10636-6 P243L): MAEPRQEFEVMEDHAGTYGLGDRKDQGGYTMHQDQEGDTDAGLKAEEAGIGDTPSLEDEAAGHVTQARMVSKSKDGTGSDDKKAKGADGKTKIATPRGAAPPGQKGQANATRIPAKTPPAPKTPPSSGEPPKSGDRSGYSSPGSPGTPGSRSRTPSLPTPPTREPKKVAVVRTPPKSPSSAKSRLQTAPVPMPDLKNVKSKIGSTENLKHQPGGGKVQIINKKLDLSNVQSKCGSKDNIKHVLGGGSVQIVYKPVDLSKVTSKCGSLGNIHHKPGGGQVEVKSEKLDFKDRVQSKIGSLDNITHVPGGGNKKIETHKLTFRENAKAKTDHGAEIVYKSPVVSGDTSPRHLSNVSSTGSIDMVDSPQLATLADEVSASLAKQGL

On to `CN(C)[C@@H]1CCc2c(c3ccc(Nc4ccc5sc(N6CCOCC6)nc5c4)nc3n2C)C1` [Example 2], for which, at sarkosyl-insoluble Tau, the “sarkosyl insoluble Tau” value is listed as “dose-dependent decrease”. Moreover, in the assay with rTg4510 mice, the cortex size result was “dose-dependent increase”. For the same compound, in the assay on Iba1 positive microglia, the Iba1 immunoreactive area entry was “significant decrease”.

Values taken from US12202840B2, “Compounds for the treatment or alleviation of disorders associated with Tau aggregates” (AC Immune SA, priority 2018, dated 2025).
